From ChEMBL document CHEMBL3044779, “The action of herbicides on fatty acid biosynthesis and elongation in barley and cucumber” (Pest Manag Sci, 2010)

Tests used:
Cucumis sativus [1] = assay: Inhibition of fatty acid synthesis in Cucumis sativus (cucumber) using [14C]acetate assessed as [14C]-labeled 18C fatty acid level at 100 uM after 3 hr by liquid scintillation counting (reference value: 43.9 +/- 3.6%); format: functional; design: scale not given: the % may be the effect or the level left
Hordeum vulgare [2] = assay: Inhibition of fatty acid synthesis in Hordeum vulgare (barley) using [14C]acetate assessed as [14C]-labeled 18C fatty acid level at 1 uM after 3 hr by liquid scintillation counting (reference value: 42.6 +/- 2.4%); format: functional; design: scale not given: the % may be the effect or the level left
Hordeum vulgare [3] = assay: Inhibition of fatty acid synthesis in Hordeum vulgare (barley) using [14C]acetate assessed as [14C]-labeled 16C fatty acid level at 1 uM after 3 hr by liquid scintillation counting (reference value: 23.3 +/- 0.2%); format: functional; design: scale not given: the % may be the effect or the level left
Acetyl-CoA carboxylase [4] = target: T1, Acetyl-CoA carboxylase (Zea mays, UniProt Q3V4E6); assay: Inhibition of Zea mays (maize) chloroplastic ACCase using acetyl-coA as substrate assessed as inhibition of [14C]NaHCO3 incorporation into malonyl-coA incubated for 10 min prior to substrate addition measured for 20 min by liquid scintillation counting
T1 sequence (Q3V4E6 whole entry): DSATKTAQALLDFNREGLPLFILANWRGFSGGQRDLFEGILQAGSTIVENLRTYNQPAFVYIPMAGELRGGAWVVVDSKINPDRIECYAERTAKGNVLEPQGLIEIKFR

Cucumis sativus [5] = assay: Inhibition of fatty acid synthesis in Cucumis sativus (cucumber) using [14C]acetate assessed as [14C]-labeled 22C fatty acid level at 100 uM after 3 hr by liquid scintillation counting (reference value: 10.2 +/-1.6%); format: functional; design: scale not given: the % may be the effect or the level left
Hordeum vulgare [6] = assay: Inhibition of fatty acid synthesis in Hordeum vulgare (barley) using [14C]malonate assessed as [14C]-labeled 16C fatty acid level at 1 uM after 3 hr by liquid scintillation counting (reference value: 8.7 +/- 0.2%); format: functional; design: scale not given: the % may be the effect or the level left
Hordeum vulgare [7] = assay: Inhibition of fatty acid synthesis in Hordeum vulgare (barley) using [14C]acetate assessed as [14C]-labeled 24C fatty acid level at 1 uM after 3 hr by liquid scintillation counting (reference value: 11 +/- 0.8%); format: functional; design: scale not given: the % may be the effect or the level left
Hordeum vulgare [8] = assay: (§1) Inhibition of fatty acid synthesis in Hordeum vulgare (barley) assessed as inhibition of [14C]acetate incoporation in total fatty acids at 1 uM measured as total disintegration per g of fresh weight after 3 hr by liquid scintillation counting (reference value: 4.6 +/- 1.2 dpm x 10^6 g'1 fresh wt); format: functional
Hordeum vulgare [9] = assay: Inhibition of fatty acid synthesis in Hordeum vulgare (barley) using [14C]malonate assessed as [14C]-labeled 18C fatty acid level at 1 uM after 3 hr by liquid scintillation counting (reference value: 30.3 +/- 2.9%); format: functional; design: scale not given: the % may be the effect or the level left
Hordeum vulgare [10] = assay: Inhibition of fatty acid synthesis in Hordeum vulgare (barley) using [14C]malonate assessed as [14C]-labeled 20C fatty acid level at 1 uM after 3 hr by liquid scintillation counting (reference value: 6.1 +/- 0.5%); format: functional; design: scale not given: the % may be the effect or the level left
Hordeum vulgare [11] = assay: Inhibition of fatty acid synthesis in Hordeum vulgare (barley) using [14C]acetate assessed as [14C]-labeled 20C fatty acid level at 1 uM after 3 hr by liquid scintillation counting (reference value: 6.6 +/- 2.3%); format: functional; design: scale not given: the % may be the effect or the level left
Hordeum vulgare [12] = assay: Inhibition of fatty acid synthesis in Hordeum vulgare (barley) using [14C]malonate assessed as [14C]-labeled 22C fatty acid level at 1 uM after 3 hr by liquid scintillation counting (reference value: 26.7 +/- 2.6%); format: functional; design: scale not given: the % may be the effect or the level left
Hordeum vulgare [13] = assay: Inhibition of fatty acid synthesis in Hordeum vulgare (barley) using [14C]malonate assessed as [14C]-labeled 24C fatty acid level at 1 uM after 3 hr by liquid scintillation counting (reference value: 20.7 +/- 1.8%); format: functional; design: scale not given: the % may be the effect or the level left
Acetyl-CoA carboxylase [14] = target: T1, Acetyl-CoA carboxylase; assay: Inhibition of Zea mays (maize) cytosolic ACCase using acetyl-coA as substrate assessed as inhibition of [14C]NaHCO3 incorporation into malonyl-coA incubated for 10 min prior to substrate addition measured for 20 min by liquid scintillation counting
Cucumis sativus [15] = assay: Inhibition of fatty acid synthesis in Cucumis sativus (cucumber) using [14C]acetate assessed as [14C]-labeled 20C fatty acid level at 100 uM after 3 hr by liquid scintillation counting (reference value: 14.7 +/- 0.6%); format: functional; design: scale not given: the % may be the effect or the level left
Cucumis sativus [16] = assay: Inhibition of fatty acid synthesis in Cucumis sativus (cucumber) using [14C]acetate assessed as [14C]-labeled 16C fatty acid level at 100 uM after 3 hr by liquid scintillation counting (reference value: 31 +/- 2.8%); format: functional; design: scale not given: the % may be the effect or the level left
Cucumis sativus [17] = assay: as §1, with “in Cucumis sativus (cucumber)” for “in Hordeum vulgare (barley)”, “at 100” for “at 1”, “value: 9.2” for “value: 4.6”, “+/- 2.1” for “+/- 1.2”; format: functional
Hordeum vulgare [18] = assay: Inhibition of fatty acid synthesis in Hordeum vulgare (barley) assessed as inhibition of [14C]malonate incoporation in total fatty acids at 1 uM measured as total disintegration per g of fresh weight after 3 hr by liquid scintillation counting (reference value: 5.4 +/- 0.9 1 dpm x 10^6 g'1 fresh wt); format: functional
Hordeum vulgare [19] = assay: Inhibition of fatty acid synthesis in Hordeum vulgare (barley) using [14C]acetate assessed as [14C]-labeled 22C fatty acid level at 1 uM after 3 hr by liquid scintillation counting (reference value: 16.6 +/- 0.6%); format: functional; design: scale not given: the % may be the effect or the level left
Hordeum vulgare [20] = assay: Inhibition of fatty acid synthesis in Hordeum vulgare (barley) using [14C]malonate assessed as [14C]-labeled 26C fatty acid level at 1 uM after 3 hr by liquid scintillation counting (reference value: 7.6 +/- 1.8%); format: functional; design: scale not given: the % may be the effect or the level left

`CCc1cc(C)cc(CC)c1C1C(=O)N2CCOCCN2C1=O` [PINOXADEN DIONE] was tested, and the Activity (Cucumis sativus [1]) was 47.4%, the Activity (Hordeum vulgare [2]) was 18.1% and the Activity (Hordeum vulgare [3]) was 3.1%. The IC50 (Acetyl-CoA carboxylase [4]) was 0.11 µM, the Activity (Cucumis sativus [5]) was 11.9% and the Activity (Hordeum vulgare [6]) was 0.5%. It also gave an Activity (Hordeum vulgare [7]) of 32.6%, an Activity (Hordeum vulgare [8]) of 2.8 ×10⁶ dpm and an Activity (Hordeum vulgare [9]) of 8.3%. It also gave an Activity (Hordeum vulgare [10]) of 7.7%, an Activity (Hordeum vulgare [11]) of 3.6% and an Activity (Hordeum vulgare [12]) of 41.9%. For the same molecule, the Activity (Hordeum vulgare [13]) was 27.7%, the IC50 (Acetyl-CoA carboxylase [14]) was 16.9 µM and the Activity (Cucumis sativus [15]) was 10.1%. The Activity (Cucumis sativus [16]) was 30.4%, the Activity (Cucumis sativus [17]) was 9.2 ×10⁶ dpm and the Activity (Hordeum vulgare [18]) was 5.1 ×10⁶ dpm. For the same molecule, the Activity (Hordeum vulgare [19]) was 32.7% and the Activity (Hordeum vulgare [20]) was 13.8%.
